The subject of series [1] is FIV infection of naïve cat PBMC. As to the kind of experiment: In vitro FIV enhancing/inhibitory (E/I) assay in PBMC from naïve SPF cats (RT titer). The series is classed as cell-based. The note with it: for effect on in vitro FIV infection: PBMC from naïve cats. The protocol:
FIG. 35. FIV-enhancing versus inhibitory epitopes on peptides and MAPs used in pilot MAP Study. […] Abbreviation: MAP1 plus MAP2 mix (MAP1+2).
FIG. 36A and 36B. FIV/HIV-1 enhancing versus inhibitory epitopes. […] Four epitope peptides were tested in an in vivo efficacy study with prototype vaccine prime and MAP boosts against pathogenic FIV challenge (see MAP section).
To test the possibility that Fp4-3 peptide may be enhancing FIV infection, we performed an in vitro FIV enhancing/inhibitory analysis with all MAP peptides and immunogens. […]. Since MAP2 consisted of peptides FRT3-3 and FRT3-4 with a natural overlap (FIG. 34), such overlap may have blocked the enhancing activity of peptide FRT3-3 while allowing the inhibitory activity of peptide FRT3-4. […] Moreover, none of the MAP vaccinated cats had early detection or enhancement in viral load compared to the control cats. Perhaps, the strong immunity generated by the MAP2 has blocked the enhancing activity of the MAP1 when boosted together (Group 1, Table 3). To test this possibility, in vitro study is currently undergoing to evaluate whether MAP2 can block FIV enhancing activity of MAP1. Furthermore, more cats will be vaccinated with MAP 1b and MAP2 to determine the levels of cytotoxins generated to peptides Fp14-1, FRT3-3 and FRT3-4. Since these peptides have induced CTL-associated cytotoxin expression in T cells from HIV^+ subjects (FIGS. 31A-31B; FIG. 5 in (Sanou et al. 2013)), these EC peptides may also mediate their in vivo effects by inducing anti-FIV specific CTL activity.
However, only peptide Fp4-3 correlated with the in vitro enhancement induced by MAP1. Since the in vitro E/I assay uses PBMC from naïve specific pathogen free (SPF) cats, it is unlikely that the in vitro stimulation of anti-FIV CTLs occurred in the culture and eliminated the infected cells. More likely, these enhancing or inhibitory peptides induced cytokines (enhancement: IFNγ, TNFα, GM-CSF; inhibition: IFNα, IL10), chemokines (inhibition: MIP1α, MIP1β, SDF-1, RANTES), or cellular restriction factors (inhibition: Trim5α, APOBEC3g) that either enhanced or inhibited FIV/HIV-1 infection. […] IFNγ is produced during inflammatory responses to HIV-1 infection (Ipp and Zemlin 2013). Thus, high levels of antiviral cellular immune responses are needed while minimizing both non-specific and viral-specific activation of CD4^+ T cells which can enhance viral replication (Lane 2010). Removal of the enhancing epitopes on FIV and HIV-1 immunogens will be critical to produce an effective HIV-1 vaccine. To accomplish this goal, we will design a vaccine based on antiviral epitopes directed at inducing viral-specific CD4^+ CTLs, CD8^+ CTLs and polyfunctional T cells, and identifying viral enhancing epitopes to remove from vaccine candidates.

Series [2] concerns CD8+ T cells from HIV+ subjects. As to the kind of experiment: Intracellular cytotoxin staining (ICS: perforin, GrzA, GrzB, CD107a), CD8+ T cells from HIV+ subjects. The series is classed as cell-based, human. Details: key to CD8^+ T-cell cytotoxins (8C): positive (+); negative (−) response; inhibitory (↓); not done (n). The conditions noted are these: for CD8^+ T-cell cytotoxins (8C): HIV^+ subjects compared to HIV^− control group; for HIV+ subjects whose CD8+ T cells responded with one or more cytotoxins: five HIV+ subjects, individual 13-15mer peptides. The protocol:
(§1) Briefly, 1×10^6PBMCs (freshly isolated) are stimulated with 20 μg of peptides for 6 hours in a total volume of 200 μL in a 96-well plate in presence of Golgi transport inhibitor (37° C., 5% CO2). The cells are processed as previously described (Horton et al. (2007)). Cells were stained with the LIVE/DEAD® fixable yellow dye (Invitrogen, Eugene, Oreg.). The monoclonal antibodies fluorochome-conjugated to human cytokines used are: APC-H7 to CD3 (clone SK7); BD Horizon V450 to CD4 (clone RPA-T4); Qdot to CD8 (clone 3B5); PE-cy7 to IFN-γ (clone 4S.B3); APC to IL-2 (clone MQ1-17H12) PerCP to perforin (clone B-D48); Alexa F1.700 to granzyme-B (clone GB11) and PE to granzyme-A (clone CB9). The flow cytometry data is collected using BD LSRII and analyzed with the FACS DIVA software.
(§2) The ICS analysis (Horton et al. (2007)) involved stimulating 0.5-1.0×10^6 freshly isolated PBMC for 6 h with the same peptide stimulant and culture conditions as the proliferation analysis in the presence of 1 μg/mL of Golgi transport inhibitor and monensin followed by labeling with LIVE/DEAD fixable yellow dye and then treatment with anti-CD16/CD32 antibody and T-cell phenotypic antibodies. The cells were subsequently fixed and permeabilized with Cytofix/Cytoperm solution (BD Biosciences) before reaction with anti-cytotoxin antibodies. The antibodies consisted of anti-CD3 APC-H7, anti-CD4 BD Horizon V450, and anti-CD8 FITC followed by anti-GrzB Alexa 700 and anti-GrzA PE (all from BD Biosciences), and anti-perforin PerCP (Abcam, Boston, Mass.).
(§3) In both analyses, 1.0-2.0×10^4 cells were fixed in phosphate-buffered saline (PBS) containing 2% paraformaldehyde and analyzed on BD LSRII using […] Software (BD Biosciences), with a positive threshold of 3% CFSE^low for CFSE-proliferation and 1% T cells expressing cytotoxin for ICS. The final value for each subject was derived after subtraction of the subject's medium control and the average value of peptide-stimulated cells from uninfected control subjects.
(§4) Flow cytometry (FACS) for measuring CFSE-proliferation and intracellular cytokine staining (ICS). Carboxyfluorescein diacetate succinimide ester (CFSE)-proliferation analysis was performed according to the manufacturer's protocol (Invitrogen) and processed as previously described (Lichterfeld et al. 2004) using the following modification: 2.5-5.0×10^5 CFSE-labeled PBMC stimulated for 4-5 days (37° C., 5% CO2) with 15-30 μg of peptides in culture media (AIM V medium, 25 μg/mL gentamycin, and 10% heat-inactivated fetal bovine serum). The ICS analysis was performed as previously described (Horton et al. 2007; Pattacini et al. 2012).
(§5) The antibodies used for the proliferation analysis consisted of anti-CD4 allophycocyanin (APC) anti-CD3 APC-H7, and anti-CD8 Pacific Blue, and those for ICS were anti-CD3 APC-H7, anti-CD4 BD Horizon V450, anti-CD8 FITC, anti-granzyme B (GrzB) Alexa 700, anti-granzyme A (GrzA) PE (BD Biosciences, Cat #555349, 560176, 558207, 560345, 555366, 560213, 558904), and anti-perforin PerCP (Abcam, Cat #ab86319). Both analyses were performed with BD LSRII and […]™ Software (BD Biosciences), using a positive threshold of >1% CFSE^low for CFSE-proliferation except for ICS studies with threshold of >0.1% T cells expressing cytotoxin. The final value for each subject was derived after subtracting the result of each HIV^+ subject with the media control followed by subtraction with the average response of the media-control subtracted HIV^− subjects.

In series [3] the test system is CD4+ T cells from HIV+ subjects. As to the kind of experiment: Intracellular cytotoxin staining (ICS), CD4+ T cells from HIV+ subjects. The series is classed as cell-based, human. On the set-up: key to CD4^+ T-cell cytotoxins (4C): positive (+); negative (−) response; inhibitory (↓); not done (n). The conditions noted are these: for CD4^+ T-cell cytotoxins (4C): HIV^+ subjects compared to HIV^− control group; for cytotoxin expression in CD4+ T cells (in words): ST/ART− subjects. The protocol:
as §1, §2, §3, §4, §5

Series [4] concerns CD4+ or CD8+ T cells from HIV+ subjects. As to the kind of experiment: Intracellular cytotoxin staining (ICS), CD4+ or CD8+ T cells from HIV+ responders. The note with it: for cytotoxin and CD107a expression in CD4+ and CD8+ T cells (in words): p24 peptides; for Cytotoxins: responders to Fp9 or Fp14 peptide pools. It is filed as cell-based, human. Here is the method: Briefly, 1×10^6PBMCs (freshly isolated) are stimulated with 20 μg of peptides for 6 hours in a total volume of 200 μL in a 96-well plate in presence of Golgi transport inhibitor (37° C., 5% CO2). […] Cells were stained with the LIVE/DEAD® fixable yellow dye (Invitrogen, Eugene, Oreg.). […] The flow cytometry data is collected using BD LSRII and analyzed with the FACS DIVA software.
The cells were subsequently fixed and permeabilized with Cytofix/Cytoperm solution (BD Biosciences) before reaction with anti-cytotoxin antibodies. The antibodies consisted of anti-CD3 APC-H7, anti-CD4 BD Horizon V450, and anti-CD8 FITC followed by anti-GrzB Alexa 700 and anti-GrzA PE (all from BD Biosciences), and anti-perforin PerCP (Abcam, Boston, Mass.).
as §3
Flow cytometry (FACS) for measuring CFSE-proliferation and intracellular cytokine staining (ICS).
Both analyses were performed with BD LSRII and […]™ Software (BD Biosciences), using a positive threshold of >1% CFSE^low for CFSE-proliferation except for ICS studies with threshold of >0.1% T cells expressing cytotoxin.

The subject of series [5] is T cells from HIV− subjects. The series is described as follows: CFSE-proliferation, CD8+ / CD4+ T cells from HIV− control subjects. It is filed as cell-based, human. The protocol: Flow cytometry (FACS) for carboxyfluoresein diacetate succinimide ester (CFSE)-proliferation and intracellular cytotoxin staining (ICS). The CFSE-proliferation analysis was performed on PBMC according to the manufacturer's protocol (Invitrogen, Carlsbad, Calif.) and processed as previously described (Lichterfeld et al. (2004)). Modifications consisted of using 2.0-5.0×10^5 CFSE-labeled cells stimulated for 5 days (37° C., 5% CO^2) with 30 μg/well of total peptides in a pool (15 μg/well for individual peptide, Table 10) or 5 μg/mL PHA in AIM V medium containing 25 μg/mL of gentamycin and 10% heat-inactivated human serum. Subsequently these cells were harvested and labeled with the LIVE/DEAD fixable yellow dye (Invitrogen) and then treated 5 min with anti-CD16/CD32 antibody (Biolegend, San Diego, Calif.) for blocking non-specific binding before phenotype-specific antibodies. The following antibodies were used for the CFSE-proliferation analysis: anti-CD4 APC, anti-CD3 APC-H7, and anti-CD8 Pacific Blue (BD Biosciences, San Jose, Calif.).
as §3, §4, §5

Entries after “also recorded” stand apart in the source; their conditions may differ. Ends that are not written are not given here.

For KKKSGKWRLLIDFRVLNKL [MAP2], the “effect on in vitro FIV infection” value in series [1] is reported as “significantly inhibited; also recorded: inhibition”.
As to KLYLKQSLSIANA [Fp14-4], in series [2], the “cytotoxin expression / CTL-associated activity in CD8+ T cells (in words)” value is “highest frequency and levels”; the “CD8^+ T-cell cytotoxins (8C)” value is given as “+”; the “HIV+ subjects whose CD8+ T cells responded with one or more cytotoxins” value is given as “five”. Moreover, the “CD4^+ T-cell cytotoxins (4C)” value in series [3] is recorded as “+”. In addition, the “cytotoxin and CD107a expression in CD4+ and CD8+ T cells (in words)” value (“cytotoxin and CD107a expression” below) in series [4] is “high frequency of cytotoxin expression”.
Take ARMQCRAWY [Fp9-3d]: in series [5], the “T-cell proliferation in HIV− subjects (in words)” value (shortened to “T-cell proliferation”) is “not”. Further, the “cytotoxin expression / CTL-associated activity in CD8+ T cells (in words)” value in series [2] is recorded as “more cytotoxins”. The “cytotoxin expression in CD4+ T cells (in words)” value in series [3] is on record as “very little cytotoxin expression”. Moreover, the Cytotoxins result in series [4] is reported as “Moderate Cytotoxins (only CD8)”.
As for VKNWMTETLLVQNAN [Hp15-3], in series [5], the “T-cell proliferation” value is “inducers”. For the same substance, the “CD8^+ T-cell cytotoxins (8C)” value in series [2] is on record as “+”. The “CD4^+ T-cell cytotoxins (4C)” value in series [3] is reported as “+”. In addition, in series [4], the “cytotoxin and CD107a expression” value was “high levels and frequency of cytotoxin responses”.
For “DQEQNTAEVKLYLK [MAP1b, palmitated multiple antigenic peptide with FIV p24-peptide Fp14-1 alone]”, the “effect on in vitro FIV infection” value in series [1] is “no significant in vitro effect”.
On to RMQCRAWYL [Fp9-3c], for which the “T-cell proliferation” value in series [5] is reported as “not”. The “cytotoxin expression in CD4+ T cells (in words)” value in series [3] is listed as “very little cytotoxin expression”. Moreover, the Cytotoxins entry in series [4] is listed as “Extremely Low Cytotoxins”.
As for DQEQNTAEVKLYLK [Fp14-1], the “CD8^+ T-cell cytotoxins (8C)” value in series [2] is listed as “+”. The “CD4^+ T-cell cytotoxins (4C)” value in series [3] was “+”. The Cytotoxins entry in series [4] was “High Cytototoxins (The cytotoxin result is considered high when four or five subjects express one or more cytotoxins in the CD8^+ T cells)”.
As to “concanavalin A [ConA, reference compound]”, in series [1] (FIV-enhancing mitogen control, 1:10000 dilution), the “average RT titer” value is 54,634 cpm/mL.
RAEQASQEVKNWMTE [Hp15-1]: in series [5], the “T-cell proliferation” value is reported as “not”. In series [2], the “cytotoxin expression / CTL-associated activity in CD8+ T cells (in words)” value was “robust cytotoxin levels and responder frequencies”; the “CD8^+ T-cell cytotoxins (8C)” value was “+”; the “HIV+ subjects whose CD8+ T cells responded with one or more cytotoxins” value is reported as “five”. For the same substance, the “CD4^+ T-cell cytotoxins (4C)” value in series [3] is listed as “+”. In addition, the Cytotoxins result in series [4] is listed as “High Cytotoxins (The cytotoxin result is considered high when four or five subjects express one or more cytotoxins in the CD8^+ T cells)”.
For the substance FAPARMQCRAWYLEA [Fp9-3], the “T-cell proliferation” value in series [5] was “proliferated”. In series [2], the “cytotoxin expression / CTL-associated activity in CD8+ T cells (in words)” value is “more cytotoxins; also recorded: highest frequency of responders” and the “HIV+ subjects whose CD8+ T cells responded with one or more cytotoxins” value is reported as “up to four”. For the same substance, the “cytotoxin expression in CD4+ T cells (in words)” value in series [3] is listed as “very little cytotoxin expression”. Also, in series [4], the Cytotoxins result was “High Cytotoxins (The cytotoxin result is considered high when four or five subjects express one or more cytotoxins in the CD8^+ T cells)”.
On to VKNWMTETL [Hp15-2/3a], for which the “T-cell proliferation” value in series [5] was “did not stimulate”. For the same substance, in series [4], the “cytotoxin and CD107a expression” value was “high cytotoxin and CD107a expression; also recorded: induced expression in both”.

(Values after patent US10905757B2, “Cross-reactive T cell epitopes of HIV, SIV, and FIV for vaccines in humans and cats” (priority 2012, dated 2021).)
